In EP0595743B1, “Bihaptinic derivatives for binding technetium or rhenium, process for their preparation, application for diagnosis and therapy, kits and immunological reactants comprising them” (priority 1992, dated 2001):

Tests used:
[1] = test system: cellules hépatiques; settings: 2 µg antibody 679.1MC7 24 h earlier; 100 µCi (15 pmol) i.v.; 4 h after injection
Experimental: (§1) La liaison du dérivé de l'exemple 3 aux cellules hépatiques s'effectue par l'intermédiaire de sa liaison au site Ac de l'anticorps 679.1MC7, lui même lié par son fragment F(c) à ces cellules. Des souris ayant reçu 2µg d'anticorps 679.1MC7 24 heures plus tôt sont injectées par voie intraveineuse avec 100 µCi (15 pmol) de dérivé de l'exemple 3. Les images sont réalisées avec une caméra Sopha Medical Gammatome 2 équipée avec un collimateur haute résolution de moyenne énergie, puis les animaux sont sacrifiés et la radioactivité présente dans le foie est déterminée à l'aide d'un compteur gamma. […] 100 µCi de dérivé de l'exemple 3 sont injectés à une souris ayant reçu quelques minutes plus tôt 1µg de conjugué anticorps CY34-679.1MC7 (anti-lyb8.2-anti-Histamine-Succinyl-Glycine). Les images sont enregistrées comme indiqué dans l'exemple précédent. […] Des cellules de tumeurs colorectales humaines (cellules LS 174, 3.10^6) sont injectées par voie sous cutanée à des souris nudes. […] Les souris reçoivent alors 2µg de conjugué anticorps F6-679.1MC7 (antiCEA-anti-Histamine-Succinyl-Glycine). Vingt quatre heures plus tard les souris reçoivent 6,7µCi (1pmol) de dérivé de l'exemple 3. Six heures plus tard les images sont enregistrées comme indiqué dans l'exemple précédent puis les animaux sacrifiés.

[2] = test system: lymphocytes de souris BALB/c qui expriment l'antigène Lyb 8.2; settings: 1 µg conjugate CY34-679.1MC7 a few minutes earlier; 100 µCi; 4 h after injection
Experimental: as §1

[3] = test system: tumeurs colorectales humaines (LS174); settings: 2 µg conjugate F6-679.1MC7 24 h earlier, 6,7 µCi (1 pmol)
Experimental: as §1

[4] = test system: cellules LS-174 T; settings: LS-174 T cells 7.10^6/ml, 4 °C, 2 h; nanomolar concentrations of bispecific antibody (anti-CEA/anti-histamine-succinyl-glycine); maximum binding
Experimental: Des cellules LS-174 T (7.10^6 cellules/ml), cellules d'origine humaine connues pour exprimer à leur surface l'antigène carcino-embryonnaire, sont incubées à 4° C pendant 2 heures dans des tubes contenant un tampon phosphate isotonique à pH 7,3. Dans ces tubes, ont été ajoutés à des concentrations variables le conjugué bispécifique approprié (anti-antigène carcino-embryonnaire/anti-histamine-succinyl-glycine), marqué à l'iode-125 suivant une des techniques bien connues et la sonde, marquée au ^99mTc comme décrit ci-dessus. Ces concentrations sont calculées pour couvrir un domaine s'étendant de concentrations très inférieures à très supérieures à la concentration de l'antigène cible dans le mélange. A la fin de cette incubation, 100 µl de mélange sont transférés en triplicates dans des tubes contenant un mélange de phthalates. Les tubes sont centrifugés 30 secondes à environ 5000 g. Les cellules, plus denses que les phthalates, forment un culot alors que le surnageant reste à la surface. On peut alors compter séparément les activités (^125I et ^99mTc) liées aux cellules et les activités non liées et en calculer les rapports.

“^99mTc mercaptoacétyl-Glycyl-Glycyl-Glycyl-N-ε-(Histamine-Succinyl-Glycine)-Lysyl-D-Tyrosyl-N-ε-(Histamine-Succinyl-Glycine)-Lysinamide [Exemple 3]” was tested. Which “% de la dose injectée localisée dans le foie” value [1] did it give?
Its value is 54 ± 6 % de la dose injectée.

What about the scintigraphie du foie [1] of the same substance?
The scintigraphie du foie was “apparent en scintigraphie”.

And the “% de la dose injectée localisée dans la rate” value [2]?
The value was 43 ± 3 % de la dose injectée.

What about the “scintigraphie de la rate” value [2] of the same substance?
Its value is “apparente en scintigraphie”.

What about the visibilité des tumeurs [3] of the same substance?
The visibilité des tumeurs was “visibles dès trois heures après l'injection”.

What about the “localisation de la radioactivité” value ([3]; 6 h after injection) of the same substance?
Its value is 9,8 ± 3,7 % / g de tumeur.

And the “rapport de marquage tumeur/plasma” value ([3]; 6 h after injection)?
The value was 2.0 + 0.5.

What about the “pourcentage de sonde lié par rapport à sa quantité totale” value [4] of the same substance?
The value was ~70%.
